Earlier results as cited in PMC9510668 (Frontiers in Pharmacology, 2022).
Values after ≈ are worked out from the molar mass of the structure shown. Where two headings read alike, the source gives them in different places.

Tests used:
[1] = human; ref Heath et al., 2010; cited from earlier work
VEGFR = conditions: ref Heath et al., 2010; cited from earlier work
[2] = parameters: method as in Röhss and Hedenström, 2002; conditions: 40 mg OD orally for 5 days; ref Röhss and Hedenström, 2002; cited from earlier work
CYP3A4 [3] = conditions: read-out: Ki CYP3A4; ketoconazole; ref [1]; cited from earlier work
[4] = healthy human, mean, cited from earlier work
[5] = cited from earlier work
UGT1A1 = test system: UGT1A1; parameters: method as in ref [2] (a number printed in a supplementary file, which may have a reference list of its own: not looked up in the article's list); conditions: ref [2]; cited from earlier work
[6] = cited from earlier work; remark: listed apart in the source
CYP3A5 = test system: CYP3A5; parameters: method as in ref [6] (a number printed in a supplementary file, which may have a reference list of its own: not looked up in the article's list); conditions: ref [6]; cited from earlier work
OATP1B1 = conditions: lapatinib; ref [8]; cited from earlier work
CYP3A4 [7] = test system: CYP3A4; parameters: method as in ref [6] (a number printed in a supplementary file, which may have a reference list of its own: not looked up in the article's list); conditions: ref [6]; cited from earlier work
P-gp = conditions: lapatinib; ref [8]; cited from earlier work
BCRP1 = target: BCRP1; parameters: method as in ref [8] (a number printed in a supplementary file, which may have a reference list of its own: not looked up in the article's list); conditions: lapatinib; ref [8]; cited from earlier work

## Cc1c2ccc(N(C)c3ccnc(Nc4ccc(CO)c(S(N)(=O)=O)c4)n3)cc2nn1C [GSK1268997]
[1]
  Systemic exposure relative to unchanged PAZ: about 2%
VEGFR
  Potency towards VEGFR in comparison to PAZ: equal potency

## COc1ccc2nc([S@@+]([O-])Cc3ncc(C)c(OC)c3C)[nH]c2c1 [esomeprazole]
[2]
  Human intragastric mean 24-h pH: 4.78

## CC(=O)N1CCN(c2ccc(OCC3COC(Cn4ccnc4)(c4ccc(Cl)cc4Cl)O3)cc2)CC1 (stereo not drawn) [ketoconazole]
CYP3A4 [3]
  Ki: […]
[4]; ketoconazole
  AUC0-48, Observed: […]
  Cmax, Observed: […]
  Tmax, Observed: […]
[5]; @pH6.5, ref [1]
  Solubility in buffer: 6.93 µg/mL (≈ 13 µM)
[5]; pH7.4, ref [1]
  Log (@pH7.4), lipophilicity: 2.67
UGT1A1
  Km: 22.3 µM
  UGT1A1 Vmax: 9.37 pmol/min/pmol
[6]; ketoconazole, ref [1]
  Rbp: 0.59

## CS(=O)(=O)CCNCc1ccc(-c2ccc3ncnc(Nc4ccc(OCc5cccc(F)c5)c(Cl)c4)c3c2)o1 [lapatinib]
CYP3A5
  CPY3A5 CLint: 5 µL/min/nmol
OATP1B1
  Ki: 4 µM
CYP3A4 [7]
  CPY3A4 CLint: 105 µL/min/nmol
[4]; lapatinib
  AUC0-48, Observed: 5.3289 µg·h/mL
  Cmax, Observed: 0.311 µg/mL
  Tmax, Observed: 3 h
P-gp
  Ki: 3.9 µM
[5]; ref [3]
  Water Solubility in FaSSIF pH=6.5: 5.4 μg/mL
[6]; lapatinib, ref [4]
  fup: 0.01
[6]; lapatinib, ref [5]
  Rbp: 0.84
BCRP1
  Ki: 0.025 µM
